Results taken from patent US10844074B2, “Heterocycle compounds and uses thereof” (ZHEJIANG JIANFENG-YIEN BIOTECHNOLOGY CO., LTD., priority 2015, dated 2020).

How the values were obtained:
EGFR T790M = EGFR T790M (Homo sapiens, UniProt P00533, T790M); experiment: EGFR Enzyme Assay; assay type: biochemical; conditions: 1 uM compound, read-out: T790M (% inh @ 1 uM)
Description: The following TABLE III lists compounds representative of the invention and their activity in EGFR assays. In these assays, the following grading was used: A: >50% @1 μM; B: <50% @ 1 μM.

BTK = BTK (Homo sapiens, UniProt Q06187); experiment: BTK Enzyme Assay; assay type: biochemical; conditions: 1 uM compound; read-out: BTK (% inh @ 1 uM)
Description: The following TABLE II lists compounds representative of the invention and their activity in BTK assays. In these assays, the following grading was used: A: >30% inhibition @1 μM; B: <30% inhibition @1 μM.

Chain of EGFR T790M (P00533 25-1210 T790M): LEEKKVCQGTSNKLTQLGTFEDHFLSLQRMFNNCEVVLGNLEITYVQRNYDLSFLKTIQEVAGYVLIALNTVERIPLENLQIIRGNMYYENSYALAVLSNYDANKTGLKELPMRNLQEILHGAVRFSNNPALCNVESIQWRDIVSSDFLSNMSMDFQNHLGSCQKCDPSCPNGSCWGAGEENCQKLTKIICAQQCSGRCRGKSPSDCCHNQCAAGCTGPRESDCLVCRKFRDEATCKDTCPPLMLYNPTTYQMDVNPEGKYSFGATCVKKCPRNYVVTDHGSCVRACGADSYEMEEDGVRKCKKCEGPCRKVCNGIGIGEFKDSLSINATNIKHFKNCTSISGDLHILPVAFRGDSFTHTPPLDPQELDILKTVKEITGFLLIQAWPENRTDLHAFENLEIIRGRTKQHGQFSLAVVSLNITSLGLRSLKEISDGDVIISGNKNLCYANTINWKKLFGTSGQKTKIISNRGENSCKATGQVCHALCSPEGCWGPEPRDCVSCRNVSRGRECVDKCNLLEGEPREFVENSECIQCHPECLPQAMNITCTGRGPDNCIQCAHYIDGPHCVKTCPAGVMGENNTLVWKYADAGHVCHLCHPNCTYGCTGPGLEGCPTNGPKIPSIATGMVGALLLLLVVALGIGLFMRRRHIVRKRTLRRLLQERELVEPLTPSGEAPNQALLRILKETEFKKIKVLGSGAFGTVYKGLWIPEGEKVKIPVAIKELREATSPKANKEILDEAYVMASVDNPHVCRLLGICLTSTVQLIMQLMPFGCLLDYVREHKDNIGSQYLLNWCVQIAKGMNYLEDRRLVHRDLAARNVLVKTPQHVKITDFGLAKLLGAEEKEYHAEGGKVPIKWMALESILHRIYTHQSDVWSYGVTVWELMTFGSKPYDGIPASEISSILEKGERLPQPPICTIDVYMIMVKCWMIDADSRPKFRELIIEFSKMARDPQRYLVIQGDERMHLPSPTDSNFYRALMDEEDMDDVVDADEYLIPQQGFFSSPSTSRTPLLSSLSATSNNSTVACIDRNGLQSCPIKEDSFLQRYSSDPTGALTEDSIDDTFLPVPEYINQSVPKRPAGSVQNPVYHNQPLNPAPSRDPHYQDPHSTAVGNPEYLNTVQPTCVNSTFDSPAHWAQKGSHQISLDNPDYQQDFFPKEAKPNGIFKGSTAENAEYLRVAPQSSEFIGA
Chain of BTK (Q06187 whole entry): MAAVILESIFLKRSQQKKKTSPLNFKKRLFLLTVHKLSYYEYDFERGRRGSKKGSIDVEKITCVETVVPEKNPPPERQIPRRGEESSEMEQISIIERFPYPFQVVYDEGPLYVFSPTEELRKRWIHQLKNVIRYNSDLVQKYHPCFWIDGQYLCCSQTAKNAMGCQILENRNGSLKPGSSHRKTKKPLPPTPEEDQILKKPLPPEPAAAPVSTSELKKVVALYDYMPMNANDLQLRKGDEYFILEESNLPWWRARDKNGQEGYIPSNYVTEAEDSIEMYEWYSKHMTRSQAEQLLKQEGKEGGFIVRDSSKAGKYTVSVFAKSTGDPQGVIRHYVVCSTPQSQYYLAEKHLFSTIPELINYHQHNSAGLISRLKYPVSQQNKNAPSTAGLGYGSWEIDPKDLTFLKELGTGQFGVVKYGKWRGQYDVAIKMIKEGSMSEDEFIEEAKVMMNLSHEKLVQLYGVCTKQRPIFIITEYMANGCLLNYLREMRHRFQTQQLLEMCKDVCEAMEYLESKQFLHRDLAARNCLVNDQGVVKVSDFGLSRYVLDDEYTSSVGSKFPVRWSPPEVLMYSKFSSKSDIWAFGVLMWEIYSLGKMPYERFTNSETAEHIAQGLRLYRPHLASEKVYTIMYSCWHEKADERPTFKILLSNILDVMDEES

| inhibition at 1 µM (EGFR T790M) | inhibition at 1 µM (BTK) | SMILES |
| --- | --- | --- |
|  | < 30% | C=CC(=O)Nc1cc(Nc2nc(-c3ccccc3)c3ccsc3n2)c(OC)cc1N1CCN(C)CC1 [Compound 42, N-[4-methoxy-2-(4-methylpiperazin-1-yl)-5-[(4-phenylthieno[2,3-d]pyrimidin-2-yl)amino]phenyl]prop-2-enamide] |
|  | > 30% | C=CC(=O)Nc1cc(Nc2nc(-c3cccc4ccn(C)c34)c3sccc3n2)c(OC)cc1N1CCN(C)CC1 [Compound 44, N-[4-methoxy-5-[[4-(1-methylindol-7-yl)thieno[3,2-d]pyrimidin-2-yl]amino]-2-(4-methylpiperazin-1-yl)phenyl]prop-2-enamide] |
|  | < 30% | C=CC(=O)Nc1cc(Nc2nc(-c3cccc4cc[nH]c34)c3sccc3n2)c(OC)cc1N1CCN(C)CC1 [Compound 45, N-[5-[[4-(1H-indol-7-yl)thieno[3,2-d]pyrimidin-2-yl]amino]-4-methoxy-2-(4-methylpiperazin-1-yl)phenyl]prop-2-enamide] |
|  | > 30% | C=CC(=O)Nc1cc(Nc2nc(-c3ccn(C)c3)c3ccsc3n2)c(OC)cc1N1CCN(C)CC1 [Compound 46, N-[4-methoxy-2-(4-methylpiperazin-1-yl)-5-[[4-(1-methylpyrrol-3-yl)thieno[2,3-d]pyrimidin-2-yl]amino]phenyl]prop-2-enamide] |
|  | < 30% | C=CC(=O)Nc1cc(Nc2nc(-c3cc[nH]c3)c3ccsc3n2)c(OC)cc1N1CCN(C)CC1 [Compound 47, N-[4-methoxy-2-(4-methylpiperazin-1-yl)-5-[[4-(1H-pyrrol-3-yl)thieno[2,3-d]pyrimidin-2-yl]amino]phenyl]prop-2-enamide] |
|  | > 30% | C=CC(=O)Nc1cc(Nc2nc(-c3ccn(C)c3)c3sccc3n2)c(OC)cc1N1CCN(C)CC1 [Compound 48, N-[4-methoxy-2-(4-methylpiperazin-1-yl)-5-[[4-(1-methylpyrrol-3-yl)thieno[3,2-d]pyrimidin-2-yl]amino]phenyl]prop-2-enamide] |
|  | > 30% | C=CC(=O)Nc1cc(Nc2nc(-c3cc[nH]c3)c3sccc3n2)c(OC)cc1N1CCN(C)CC1 [Compound 49, N-[4-methoxy-2-(4-methylpiperazin-1-yl)-5-[[4-(1H-pyrrol-3-yl)thieno[3,2-d]pyrimidin-2-yl]amino]phenyl]prop-2-enamide] |
|  | < 30% | C=CC(=O)Nc1cc(N(C)c2nc(-c3c[nH]c4ccccc34)c3sccc3n2)c(OC)cc1N1CCOCC1 [Compound 51, N-[5-[[4-(1H-indol-3-yl)thieno[3,2-d]pyrimidin-2-yl]-methyl-amino]-4-methoxy-2-morpholino-phenyl]prop-2-enamide] |
|  | > 30% | C=CC(=O)Nc1cc(N(C)c2nc(-c3c[nH]c4ccccc34)c3sccc3n2)c(OC)cc1N(C)CCN(C)C [Compound 53, N-[2-[2-(dimethylamino)ethyl-methyl-amino]-5-[[4-(1H-indol-3-yl)thieno[3,2-d]pyrimidin-2-yl]-methyl-amino]-4-methoxy-phenyl]prop-2-enamide] |
|  | < 30% | C=CC(=O)Nc1cc(N(C)c2nc(-c3cn(C)c4ccccc34)c3sccc3n2)c(OC)cc1N(C)CCN(C)C [Compound 54, N-[2-[2-(dimethylamino)ethyl-methyl-amino]-4-methoxy-5-[methyl-[4-(1-methylindol-3-yl)thieno[3,2-d]pyrimidin-2-yl]amino]phenyl]prop-2-enamide] |

Continued, molecule first:

| SMILES | inhibition at 1 µM (EGFR T790M) | inhibition at 1 µM (BTK) |
| --- | --- | --- |
| C=CC(=O)Nc1cc(Nc2nc(-c3c[nH]c4ccccc34)c3sccc3n2)c(OC)cc1N(C)CCN(C)C [Compound 1, N-[2-[2-(dimethylamino)ethyl-methyl-amino]-5-[[4-(1H-indol-3-yl)thieno[3,2-d]pyrimidin-2-yl]amino]-4-methoxy-phenyl]prop-2-enamide] | > 50% | > 30% |
| C=CC(=O)Nc1cc(Nc2nc(-c3c[nH]c4ccccc34)c3sccc3n2)c(OC)cc1N1CCC(N(C)C)CC1 [Compound 2, N-[2-[4-(dimethylamino)-1-piperidyl]-5-[[4-(1H-indol-3-yl)thieno[3,2-d]pyrimidin-2-yl]amino]-4-methoxy-phenyl]prop-2-enamide] | > 50% | > 30% |
| C=CC(=O)Nc1cc(NC2=NC(c3cccc(NC(C)(C)C)c3)C3SC=CC3=N2)c(OC)cc1N(C)C (stereo not drawn) [Compound 5, N-[5-[[4-[3-(tert-butylamino)phenyl]-4,4a-dihydrothieno[3,2-d]pyrimidin-2-yl]amino]-2-(dimethylamino)-4-methoxy-phenyl]prop-2-enamide] | > 50% | > 30% |
| C=CC(=O)Nc1cc(NC2=NC(c3cccc(N(C)C)c3)C3SC=CC3=N2)c(OC)cc1N1CCN(C)CC1 (stereo not drawn) [Compound 6, N-[5-[[4-[3-(dimethylamino)phenyl]-4,4a-dihydrothieno[3,2-d]pyrimidin-2-yl]amino]-4-methoxy-2-(4-methylpiperazin-1-yl)phenyl]prop-2-enamide] | < 50% | > 30% |
| C=CC(=O)Nc1cc(NC2=NC(c3cccc(NC)c3)C3SC=CC3=N2)c(OC)cc1N(C)CCN1CCOCC1 (stereo not drawn) [Compound 9, N-[4-methoxy-5-[[4-[3-(methylamino)phenyl]-4,4a-dihydrothieno[3,2-d]pyrimidin-2-yl]amino]-2-[methyl(2-morpholinoethyl)amino]phenyl]prop-2-enamide] | < 50% | > 30% |
| C=CC(=O)Nc1cc(NC2=NC(c3cccc(N(C)C)c3)C3SC=CC3=N2)c(OC)cc1N1CCOCC1 (stereo not drawn) [Compound 10, N-[5-[[4-[3-(dimethylamino)phenyl]-4,4a-dihydrothieno[3,2-d]pyrimidin-2-yl]amino]-4-methoxy-2-morpholino-phenyl]prop-2-enamide] | > 50% | > 30% |
| C=CC(=O)Nc1cc(Nc2nc(-c3cccc(NC)c3)c3ccsc3n2)c(OC)cc1N(C)CCN(C)C [Compound 33, N-[2-[2-(dimethylamino)ethyl-methyl-amino]-4-methoxy-5-[[4-[3-(methylamino)phenyl]thieno[2,3-d]pyrimidin-2-yl]amino]phenyl]prop-2-enamide] |  | < 30% |
| C=CC(=O)Nc1cc(Nc2nc(-c3cn(C)c4ccccc34)c3sccc3n2)c(OC)cc1OCCN1CCOCC1 [Compound 34, N-[4-methoxy-5-[[4-(1-methylindol-3-yl)thieno[3,2-d]pyrimidin-2-yl]amino]-2-(2-morpholinoethoxy)phenyl]prop-2-enamide] |  | < 30% |
| C=CC(=O)Nc1cc(Nc2nc(-c3cn(C)c4ccccc34)c3sccc3n2)c(OC)cc1N(C)C [Compound 38, N-[2-(dimethylamino)-4-methoxy-5-[[4-(1-methylindol-3-yl)thieno[3,2-d]pyrimidin-2-yl]amino]phenyl]prop-2-enamide] |  | > 30% |
| C=CC(=O)Nc1cc(Nc2nc(-c3ccc(NC)cc3)c3sccc3n2)c(OC)cc1N(C)CC [Compound 39, N-[2-[ethyl(methyl)amino]-4-methoxy-5-[[4-[4-(methylamino)phenyl]thieno[3,2-d]pyrimidin-2-yl]amino]phenyl]prop-2-enamide] |  | > 30% |
| C=CC(=O)Nc1cc(Nc2nc(-c3ccccc3)c3ccsc3n2)c(OC)cc1N(C)CC [Compound 40, N-[2-[ethyl(methyl)amino]-4-methoxy-5-[(4-phenylthieno[2,3-d]pyrimidin-2-yl)amino]phenyl]prop-2-enamide] |  | < 30% |
